Toxic doses and inconclusive results are not listed.

The assay concerns CD2F1 mice, L1210 leukemia ip, survival T/C. The assay can be described thus: NCI In Vivo Anticancer Drug Screen. Data for tumor model L1210 Leukemia (intraperitoneal) in CD2F1 (CDF1) mice. Particulars: higher = longer survival. The gist of the method: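 Antitumor effect is scored in animals hosting a serially transplanted tumor. Values compare compound-dosed animals against vehicle-only controls as a simple quotient.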

The mark [1] stands for this setting: endpoint: mean survival time, dose: 100.0 mg/kg/injection, schedule: Q01DX001 (ip), vehicle: saline.
[2] abbreviates: endpoint: mean survival time, dose: 100.0 mg/kg/injection, schedule: Q04DX003 (ip), vehicle: saline.
Setting [3] is: endpoint: mean survival time, dose: 200.0 mg/kg/injection, schedule: Q01DX001 (ip), vehicle: saline.
[4] abbreviates: endpoint: mean survival time, dose: 400.0 mg/kg/injection, schedule: Q01DX001 (ip), vehicle: saline.
Setting [5] is: endpoint: mean survival time, dose: 100.0 mg/kg/injection, schedule: Q01DX001 (ip), vehicle: saline with Tween-80.
The mark [6] stands for this setting: endpoint: mean survival time, dose: 200.0 mg/kg/injection, schedule: Q01DX001 (ip), vehicle: saline with Tween-80.
The mark [7] stands for this setting: endpoint: mean survival time, dose: 400.0 mg/kg/injection, schedule: Q01DX001 (ip), vehicle: saline with Tween-80.
The mark [8] stands for this setting: endpoint: mean survival time, dose: 100.0 mg/kg/injection, schedule: Q01DX009 (ip), vehicle: saline with Tween-80.
[9] abbreviates: endpoint: mean survival time, dose: 100.0 mg/kg/injection, schedule: Q04DX003 (ip), vehicle: saline with Tween-80.
The mark [10] stands for this setting: endpoint: mean survival time, dose: 200.0 mg/kg/injection, schedule: Q01DX009 (ip), vehicle: saline with Tween-80.
The mark [11] stands for this setting: endpoint: mean survival time, dose: 400.0 mg/kg/injection, schedule: Q01DX009 (ip), vehicle: saline with Tween-80.
The mark [12] stands for this setting: endpoint: mean survival time, dose: 200.0 mg/kg/injection, schedule: Q04DX003 (ip), vehicle: saline with Tween-80.
The mark [13] stands for this setting: endpoint: mean survival time, dose: 400.0 mg/kg/injection, schedule: Q04DX003 (ip), vehicle: saline with Tween-80.

`C[N+]1(C)CCOC(O)(c2ccc(-c3ccccc3)cc2)C1` (stereo not given): the T/C (endpoint: mean survival time, dose: 3.13 mg/kg/injection, schedule: Q04DX002 (ip), vehicle: saline) was 98 % of control and the T/C (endpoint: mean survival time, dose: 6.25 mg/kg/injection, schedule: Q04DX002 (ip), vehicle: saline) is 91 % of control.

Consider `Cc1ccccc1NC(=O)/C=C\C(=O)O`, for which the T/C was 105 % of control (endpoint: mean survival time, dose: 20.0 mg/kg/injection, schedule: Q01DX009 (ip), vehicle: saline with Tween-80); 102 % of control (endpoint: mean survival time, dose: 20.0 mg/kg/injection, schedule: Q04DX003 (ip), vehicle: saline with Tween-80); 104 % of control (endpoint: mean survival time, dose: 40.0 mg/kg/injection, schedule: Q01DX009 (ip), vehicle: saline with Tween-80); 97 % of control (endpoint: mean survival time, dose: 40.0 mg/kg/injection, schedule: Q04DX003 (ip), vehicle: saline with Tween-80); 102 % of control (endpoint: mean survival time, dose: 80.0 mg/kg/injection, schedule: Q01DX009 (ip), vehicle: saline with Tween-80); 97 % of control (endpoint: mean survival time, dose: 80.0 mg/kg/injection, schedule: Q04DX003 (ip), vehicle: saline with Tween-80).

Take `CC(=O)Oc1c(Br)cc(Br)cc1-c1ccccc1`: the T/C is 95 % of control under setting [1]; 117 % of control under setting [2]; 94 % of control under setting [3]; 105 % of control (endpoint: mean survival time, dose: 200.0 mg/kg/injection, schedule: Q04DX003 (ip), vehicle: saline); 101 % of control under setting [4]; 114 % of control (endpoint: mean survival time, dose: 400.0 mg/kg/injection, schedule: Q04DX003 (ip), vehicle: saline).

`O=C(O)c1cc(C(=O)O)c(-c2ccccc2)c(-c2ccccc2)c1`: the T/C was 97 % of control under setting [1], 97 % of control under setting [3] and 101 % of control under setting [4].

Regarding `COc1cc(O)cc(OC)c1`, the T/C was 103 % of control (endpoint: mean survival time, dose: 25.0 mg/kg/injection, schedule: Q04DX003 (ip), vehicle: saline); 102 % of control (endpoint: mean survival time, dose: 50.0 mg/kg/injection, schedule: Q04DX003 (ip), vehicle: saline); 100 % of control under setting [2].

With `CNC(=S)NCc1ccc(C(=O)NC(C)C)cc1`, the T/C was 97 % of control (endpoint: mean survival time, dose: 50.0 mg/kg/injection, schedule: Q01DX009 (ip), vehicle: other); 95 % of control (endpoint: mean survival time, dose: 100.0 mg/kg/injection, schedule: Q01DX009 (ip), vehicle: other); 100 % of control (endpoint: mean survival time, dose: 200.0 mg/kg/injection, schedule: Q01DX009 (ip), vehicle: other); 91 % of control (endpoint: mean survival time, dose: 400.0 mg/kg/injection, schedule: Q01DX009 (ip), vehicle: other).

Take `Cc1nc(N)[nH]c(=O)c1CCCNc1cccnc1`: the T/C runs as follows: under setting [5], 96 % of control; under setting [6], 92 % of control; under setting [7], 92 % of control.

Regarding `Oc1ccc2ccccc2c1`, the T/C reads like this: (endpoint: mean survival time, dose: 10.0 mg/kg/injection, schedule: Q04DX003 (ip), vehicle: Klucel (hydroxypropylcellulose) (HPC)) 101 % of control; (endpoint: mean survival time, dose: 20.0 mg/kg/injection, schedule: Q04DX003 (ip), vehicle: Klucel (hydroxypropylcellulose) (HPC)) 96 % of control; (endpoint: mean survival time, dose: 40.0 mg/kg/injection, schedule: Q04DX003 (ip), vehicle: Klucel (hydroxypropylcellulose) (HPC)) 96 % of control.

Regarding `Cc1cc(C)c(CCc2c(C)cc(C)cc2C)c(C)c1`, the T/C was 96 % of control (endpoint: mean survival time, dose: 25.0 mg/kg/injection, schedule: Q04DX003 (ip), vehicle: saline with Tween-80); 98 % of control (endpoint: mean survival time, dose: 50.0 mg/kg/injection, schedule: Q04DX003 (ip), vehicle: saline with Tween-80); 89 % of control under setting [8]; 100 % of control under setting [9]; 96 % of control under setting [10]; 93 % of control under setting [11].

For `Clc1ccc(N=Cc2ccc3c(c2)OCO3)c(Cl)c1`, the T/C by setting is: (endpoint: mean survival time, dose: 100.0 mg/kg/injection, schedule: Q01DX001 (ip), vehicle: Klucel (hydroxypropylcellulose) (HPC)) 100 % of control; (endpoint: mean survival time, dose: 200.0 mg/kg/injection, schedule: Q01DX001 (ip), vehicle: Klucel (hydroxypropylcellulose) (HPC)) 96 % of control; (endpoint: mean survival time, dose: 400.0 mg/kg/injection, schedule: Q01DX001 (ip), vehicle: Klucel (hydroxypropylcellulose) (HPC)) 97 % of control.

Take `N#C/C(=C\C1CCC(Cl)C(Cl)C1)C1CCC([N+](=O)[O-])CC1` (stereo not given): the T/C (endpoint: mean survival time, dose: 25.0 mg/kg/injection, schedule: Q04DX002 (ip), vehicle: saline with Tween-80) is 94 % of control and the T/C (endpoint: mean survival time, dose: 50.0 mg/kg/injection, schedule: Q04DX002 (ip), vehicle: saline with Tween-80) was 88 % of control.

Turning to `CCOC(=O)C(Cc1ccccc1C(=O)NC)c1ccccc1` (stereo not given), the T/C by setting is: under setting [9], 94 % of control; under setting [12], 94 % of control; (endpoint: mean survival time, dose: 400.0 mg/kg/injection, schedule: Q01DX009 (ip), vehicle: saline sonified) 92 % of control; under setting [13], 100 % of control.

On to `CC(C)(C)CC(C)(C)c1ccc(OCCOc2ccccc2N)cc1`, for which the T/C is 88 % of control under setting [8], 88 % of control under setting [10] and 94 % of control under setting [11].

As for `O=S1(=O)CCC(C2CCCCC2)C1` (stereo not given), the T/C under setting [1] was 95 % of control, the T/C under setting [3] is 98 % of control and the T/C under setting [4] is 106 % of control.

`O=C(CCN1C(=O)c2ccccc2C1=O)c1ccc(O)cc1`: the T/C is, setting by setting: under setting [9], 93 % of control; under setting [12], 98 % of control; under setting [13], 92 % of control.

On to `O=S(=O)(O)SCc1ccccc1`, for which the T/C under setting [9] was 97 % of control, the T/C under setting [12] was 92 % of control and the T/C under setting [13] was 98 % of control.

For the molecule `Nc1ccn(C2CC(CO)C(O)C2O)c(=O)n1` (stereo not given), the T/C (endpoint: mean survival time, dose: 150.0 mg/kg/injection, schedule: Q01DX009 (ip), vehicle: saline) was 204 % of control.

Take `CC(=O)NC(C)(C)Cc1ccccc1`: the T/C reads like this: under setting [5], 101 % of control; under setting [6], 117 % of control; under setting [7], 106 % of control.

As to `Cn1ccoc1=NC1CCCCC1`, the T/C by setting is: (endpoint: mean survival time, dose: 50.0 mg/kg/injection, schedule: Q01DX009 (ip), vehicle: saline with Tween-80) 94 % of control; under setting [8], 94 % of control; under setting [10], 91 % of control.

In the case of `O=CN/N=C/c1ccc2c(c1)CCC2`, the T/C runs as follows: under setting [9], 107 % of control; under setting [12], 96 % of control; under setting [13], 96 % of control.

On to `CSc1ncnc2c1cnn2C1OC(COC(C)=O)C(OC(C)=O)C1OC(C)=O` (stereo not given), for which the T/C was 101 % of control (endpoint: median survival time, dose: 9.0 mg/kg/injection, schedule: Q01DX005 (ip), vehicle: distilled water + Tween-80); 100 % of control (endpoint: median survival time, dose: 9.0 mg/kg/injection, schedule: Q01DX009 (ip), vehicle: distilled water + Tween-80); 98 % of control (endpoint: median survival time, dose: 18.0 mg/kg/injection, schedule: Q01DX005 (ip), vehicle: distilled water + Tween-80); 101 % of control (endpoint: median survival time, dose: 18.0 mg/kg/injection, schedule: Q01DX009 (ip), vehicle: distilled water + Tween-80); 108 % of control (endpoint: median survival time, dose: 36.0 mg/kg/injection, schedule: Q01DX005 (ip), vehicle: distilled water + Tween-80); 100 % of control (endpoint: median survival time, dose: 36.0 mg/kg/injection, schedule: Q01DX009 (ip), vehicle: distilled water + Tween-80). Moreover, the T/C was 107 % of control (endpoint: median survival time, dose: 72.0 mg/kg/injection, schedule: Q01DX009 (ip), vehicle: distilled water + Tween-80); 118 % of control (endpoint: median survival time, dose: 144.0 mg/kg/injection, schedule: Q01DX005 (ip), vehicle: distilled water + Tween-80); 113 % of control (endpoint: median survival time, dose: 144.0 mg/kg/injection, schedule: Q01DX009 (ip), vehicle: distilled water + Tween-80).

Regarding `O=P(OCc1ccccc1)(N(CCCl)CCCl)N1CCCCC1` (stereo not given), the T/C by setting is: (endpoint: mean survival time, dose: 62.5 mg/kg/injection, schedule: Q01DX010 (ip), vehicle: saline) 98 % of control; (endpoint: mean survival time, dose: 125.0 mg/kg/injection, schedule: Q01DX010 (ip), vehicle: saline) 101 % of control; (endpoint: mean survival time, dose: 250.0 mg/kg/injection, schedule: Q01DX010 (ip), vehicle: saline) 90 % of control.

As to `O=C(NC(CO)C(=O)OCc1ccccc1)OCc1ccccc1` (stereo not given), the T/C was 107 % of control under setting [8], 96 % of control under setting [10] and 91 % of control under setting [11].

`O=C(NCCc1c[nH]c2ccccc12)c1cccnc1`: the T/C (endpoint: mean survival time, dose: 100.0 mg/kg/injection, schedule: Q04DX003 (ip), vehicle: acetone) is 98 % of control; the T/C (endpoint: mean survival time, dose: 200.0 mg/kg/injection, schedule: Q04DX003 (ip), vehicle: acetone) was 96 % of control; the T/C (endpoint: mean survival time, dose: 400.0 mg/kg/injection, schedule: Q04DX003 (ip), vehicle: acetone) is 98 % of control.

(Values after PubChem BioAssay AID256 (DTP/NCI, 2004).)
